{"source": "patent EP4786487A1", "about": "“PEPTIDE” (Peptidream Inc, priority 2023, dated 2025)", "assay_type_in_all_cases": "cell-based", "key": {"Myostatin": {"target": "T1, Myostatin (Homo sapiens, UniProt O14793)", "T1 construct": "active myostatin (also called mature myostatin) is a homodimer consisting of two C-terminal growth factor domains; purchased R&D systems 788-G8/CF", "T1 sequence (O14793 267-375)": "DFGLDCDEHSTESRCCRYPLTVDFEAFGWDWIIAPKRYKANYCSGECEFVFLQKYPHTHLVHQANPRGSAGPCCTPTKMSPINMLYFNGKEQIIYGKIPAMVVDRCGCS", "assay": "Reporter gene assay for myostatin signaling in HepG2 cell line, Evaluation Procedure (1), myostatin inhibition", "settings": "HepG2, luciferase reporter, Evaluation Procedure (1), Method D", "procedure,_shortened": "(§1)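 HepG2 cells transfected with pGL3(CAGA)12-luciferase reporter, serum-starved in 0.1% BSA medium, then stimulated with myostatin or GDF-11 plus 4-fold peptide dilutions (0.006–100 nmol/L for myostatin, 0.12–2000 nmol/L for GDF-11) for 20–24 h at 37 °C. Luminescence read with One-Glo; IC50 calculated.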"}, "GDF-11 [1]": {"target": "T2, GDF-11 (Homo sapiens, UniProt O95390)", "T2 construct": "purchased R&D systems 1958-GD-G8/CF", "T2 sequence (O95390 299-407)": "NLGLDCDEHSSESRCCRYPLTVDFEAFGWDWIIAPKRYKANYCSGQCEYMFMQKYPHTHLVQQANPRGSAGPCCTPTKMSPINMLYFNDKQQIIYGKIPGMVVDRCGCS", "assay": "Reporter gene assay for myostatin signaling in HepG2 cell line, Evaluation Procedure (1), GDF-11 inhibition", "settings": "HepG2, luciferase reporter, Evaluation Procedure (1), Method D; read-out: IC50 (Luciferase) GDP-11 HepG2", "procedure,_shortened": "as §1"}, "GDF-11 [2]": {"test_system": "GDF-11", "assay": "Reporter gene assay for myostatin signaling in HepG2 cell line, Evaluation Procedure (1), GDF-11 inhibition", "settings": "GDF-11 IC50 relative to myostatin IC50, HepG2", "procedure,_shortened": "as §1"}}, "note": "Starred links: 1 amine or outer side, 2 acyl side, 3 side chain; linkers in the order of their positions; H or OH if unused. Positions of bridges follow the written chain, without caps; N, C: chain ends. Non-standard residues stand in square brackets, D forms with d. Residues, ends and D or L forms follow the SMILES beside them. Trp(6-OH,1-(4-HO2C-Ph)) = N[C@@H](Cc1cn(-c2ccc(C(=O)O)cc2)c2cc(O)ccc12)C(=O)O; Phe(3-OCH2COOH) = N[C@@H](Cc1cccc(OCC(=O)O)c1)C(=O)O; N(CH2CH2CO)Gly = O=C(CN(CCC(=O)[*:3])[*:1])[*:2]; Phe(4-COOH) = N[C@@H](Cc1ccc(C(=O)O)cc1)C(=O)O; X1 = CCCCCCC[C@H](N[*:1])C(=O)[*:2]; NMeF = CN[C@@H](Cc1ccccc1)C(=O)O; NMeDap = CN[C@@H](CN)C(=O)O; NMeA = CN[C@@H](C)C(=O)O", "data": [{"compound": "CCCCCCC[C@@H]1NC(=O)[C@H](Cc2ccccc2)N(C)C(=O)[C@H](CCCNC(=N)N)NC(=O)[C@H](Cc2ccc(C(=O)O)cc2)NC(=O)[C@H](Cc2cccc(OCC(=O)O)c2)NC(=O)[C@H]2CCCN2C(=O)[C@H]([C@@H](C)CC)NC(=O)[C@H](Cc2ccccc2)N(C)C(=O)[C@H](Cc2ccc(O)cc2)NC(=O)[C@H](Cc2cn(-c3ccc(C(=O)O)cc3)c3cc(O)ccc23)NC(=O)[C@H](C)NC(=O)CN2CCC(=O)NC[C@@H](C(=O)N(C)[C@@H](Cc3ccccc3)C(=O)N[C@H](C)C(=O)N(C)[C@@H](C)C2=O)N(C)C1=O", "note": "[Myostatin_99_v489] (cyclo(A[Trp(6-OH,1-(4-HO2C-Ph))]Y[NMeF]I[dP][Phe(3-OCH2COOH)][Phe(4-COOH)]R[NMeF][X1][NMeDap][NMeF][dA][NMeA][N(CH2CH2CO)Gly]); lactam 12-16)", "values": [{"measurement": "IC50", "setting": "Myostatin", "value": 0.12, "unit": "nM"}, {"measurement": "IC50", "setting": "GDF-11 [1]", "value": 45.4, "unit": "nM"}, {"measurement": "Selectivity", "setting": "GDF-11 [2]", "value": 365.6}]}]}
